For 16 compounds, IC50 results are on record in ChEMBL document CHEMBL5360618, “PepScaf: Harnessing Machine Learning with In Vitro Selection toward De Novo Macrocyclic Peptides against IL-17C/IL-17RE Interaction” (J Med Chem, 2023).

Structures are written as SMILES. Positions of bridges follow the written chain, without caps; N, C: chain ends. Residues, ends and D or L forms follow the SMILES beside them.

The experiment has as its target T1, IL17-RE-IL-17C (Homo sapiens, UniProt Q8NFR9+Q9P0M4).
T1 sequence (Q9P0M4 whole entry): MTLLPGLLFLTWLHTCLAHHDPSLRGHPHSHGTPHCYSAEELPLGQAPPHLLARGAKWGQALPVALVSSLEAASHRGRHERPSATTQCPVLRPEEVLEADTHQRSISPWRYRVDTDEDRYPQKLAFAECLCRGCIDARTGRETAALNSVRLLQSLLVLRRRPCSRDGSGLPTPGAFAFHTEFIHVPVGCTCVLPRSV
T1 sequence (Q8NFR9 whole entry): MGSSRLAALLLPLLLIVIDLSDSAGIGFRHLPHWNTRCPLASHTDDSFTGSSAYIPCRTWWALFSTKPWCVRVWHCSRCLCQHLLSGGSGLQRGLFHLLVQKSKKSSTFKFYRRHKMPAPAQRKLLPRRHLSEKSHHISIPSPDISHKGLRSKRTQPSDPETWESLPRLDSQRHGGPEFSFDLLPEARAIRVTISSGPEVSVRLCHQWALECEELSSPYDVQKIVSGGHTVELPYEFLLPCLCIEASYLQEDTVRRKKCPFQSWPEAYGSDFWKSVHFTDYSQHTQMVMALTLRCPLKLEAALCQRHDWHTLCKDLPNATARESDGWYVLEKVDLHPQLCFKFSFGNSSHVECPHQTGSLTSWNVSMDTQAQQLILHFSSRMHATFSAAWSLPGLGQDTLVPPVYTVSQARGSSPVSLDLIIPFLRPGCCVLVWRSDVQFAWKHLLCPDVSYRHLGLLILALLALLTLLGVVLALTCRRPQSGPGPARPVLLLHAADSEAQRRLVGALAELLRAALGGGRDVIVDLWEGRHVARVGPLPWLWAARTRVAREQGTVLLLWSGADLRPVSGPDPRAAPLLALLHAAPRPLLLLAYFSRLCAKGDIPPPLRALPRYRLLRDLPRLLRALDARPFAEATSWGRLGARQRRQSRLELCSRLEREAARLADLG
The experiment in a line: Inhibition of IL-17C/IL-17RE interaction (unknown origin) incubated for 1.5 hrs by ELISA method. The format is protein-complex assay. For orientation: An ELISA detects its analyte on a solid surface through an enzyme-linked reagent.
Regarding `CC(C)C[C@@H]1NC(=O)[C@H](CC(N)=O)NC(=O)CNC(=O)[C@H](Cc2ccc(O)cc2)NC(=O)[C@H](CC(C)C)NC(=O)[C@H](CO)NC(=O)[C@H](C)NC(=O)[C@H](Cc2ccc(O)cc2)NC(=O)[C@H](Cc2ccc(O)cc2)NC(=O)[C@H](CC(C)C)NC(=O)[C@H](Cc2c[nH]cn2)NC(=O)[C@H](Cc2ccc(O)cc2)NC(=O)CSC[C@@H](C(=O)NCC(N)=O)NC(=O)CNC1=O` ({CH2CO}-YHLYYASLYGNLGCG-NH2; thioether N-14), inhibition was half-maximal at 9.6 nM (IC50).

For `CC(C)C[C@@H]1NC(=O)[C@H](Cc2c[nH]c3ccccc23)NC(=O)[C@H](Cc2c[nH]cn2)NC(=O)[C@H](CC(=O)O)NC(=O)[C@H](Cc2ccccc2)NC(=O)[C@H](Cc2c[nH]cn2)NC(=O)[C@H](Cc2ccc(O)cc2)NC(=O)CSC[C@@H](C(=O)NCC(N)=O)NC(=O)[C@H](CC(C)C)NC(=O)[C@H](CC(C)C)NC(=O)[C@H](Cc2c[nH]cn2)NC(=O)[C@H](C)NC1=O` ({CH2CO}-YHFDHWLAHLLCG-NH2; thioether N-12), the IC50 (usually the concentration needed to halve the response being measured) is above 30000 nM. The figure for `CC(C)C[C@@H]1NC(=O)[C@H](CC(N)=O)NC(=O)CNC(=O)[C@H](Cc2ccc(O)cc2)NC(=O)[C@H](CC(C)C)NC(=O)[C@H](CO)NC(=O)[C@H](C(C)C)NC(=O)[C@H](Cc2ccc(O)cc2)NC(=O)[C@H](Cc2ccc(O)cc2)NC(=O)[C@H](CCC(N)=O)NC(=O)[C@H](Cc2c[nH]cn2)NC(=O)[C@H](Cc2ccc(O)cc2)NC(=O)CSC[C@@H](C(=O)NCC(N)=O)NC(=O)CNC1=O` ({CH2CO}-YHQYYVSLYGNLGCG-NH2; thioether N-14) is 10.4 nM; for `CC[C@H](C)[C@@H]1NC(=O)[C@H](CCCNC(=N)N)NC(=O)[C@H](Cc2ccc(O)cc2)NC(=O)[C@H](Cc2ccc(O)cc2)NC(=O)[C@H](Cc2c[nH]cn2)NC(=O)[C@H](Cc2c[nH]cn2)NC(=O)[C@H](Cc2ccc(O)cc2)NC(=O)CSC[C@@H](C(=O)NCC(N)=O)NC(=O)CNC(=O)[C@H](CC(C)C)NC(=O)[C@H](CCC(=O)O)NC(=O)[C@H](CO)NC(=O)[C@H](Cc2ccc(O)cc2)NC(=O)[C@H](CC(C)C)NC1=O` ({CH2CO}-YHHYYRILYSELGCG-NH2; thioether N-14) it is 1340 nM. Compound `CC(C)C[C@@H]1NC(=O)[C@H](Cc2c[nH]c3ccccc23)NC(=O)[C@H](CC(N)=O)NC(=O)[C@H](CC(=O)O)NC(=O)[C@H](Cc2ccccc2)NC(=O)[C@H](Cc2c[nH]cn2)NC(=O)[C@H](Cc2ccc(O)cc2)NC(=O)CSC[C@@H](C(=O)NCC(N)=O)NC(=O)[C@H](CC(C)C)NC(=O)[C@H](Cc2ccccc2)NC(=O)[C@H](C(C)C)NC(=O)[C@H](CCCNC(=N)N)NC1=O` ({CH2CO}-YHFDNWLRVFLCG-NH2; thioether N-12) showed an IC50 above 30000 nM. The figure for `CC[C@H](C)[C@@H]1NC(=O)[C@H](CCC(=O)O)NC(=O)CNC(=O)[C@H](Cc2ccc(O)cc2)NC(=O)[C@H](CC(C)C)NC(=O)[C@H]([C@@H](C)CC)NC(=O)[C@H](CCCNC(=N)N)NC(=O)[C@H](Cc2ccc(O)cc2)NC(=O)[C@H](Cc2ccc(O)cc2)NC(=O)[C@H](Cc2c[nH]cn2)NC(=O)[C@H](Cc2c[nH]cn2)NC(=O)[C@H](Cc2ccc(O)cc2)NC(=O)CSC[C@@H](C(=O)NCC(N)=O)NC(=O)CNC1=O` ({CH2CO}-YHHYYRILYGEIGCG-NH2; thioether N-14) is 422 nM; for `CC[C@H](C)[C@@H]1NC(=O)[C@H](CCCNC(=N)N)NC(=O)[C@H](Cc2ccc(O)cc2)NC(=O)[C@H](Cc2ccc(O)cc2)NC(=O)[C@H](CC(C)C)NC(=O)[C@H](Cc2c[nH]cn2)NC(=O)[C@H](Cc2ccc(O)cc2)NC(=O)CSC[C@@H](C(=O)NCC(N)=O)NC(=O)CNC(=O)[C@H](CC(C)C)NC(=O)[C@H](CC(N)=O)NC(=O)CNC(=O)[C@H](Cc2ccc(O)cc2)NC(=O)[C@H](CC(C)C)NC1=O` ({CH2CO}-YHLYYRILYGNLGCG-NH2; thioether N-14) it is 11.3 nM; for `CC[C@H](C)[C@@H]1NC(=O)[C@H](Cc2c[nH]cn2)NC(=O)[C@H](Cc2ccc(O)cc2)NC(=O)CSC[C@@H](C(=O)NCC(N)=O)NC(=O)CNC(=O)[C@H](CC(C)C)NC(=O)[C@H](CC(N)=O)NC(=O)CNC(=O)[C@H](Cc2ccc(O)cc2)NC(=O)[C@H](CC(C)C)NC(=O)[C@H](CO)NC(=O)[C@H](C)NC(=O)[C@H](Cc2ccc(O)cc2)NC(=O)[C@H](Cc2ccc(O)cc2)NC1=O` ({CH2CO}-YHIYYASLYGNLGCG-NH2; thioether N-14) it is 4.4 nM. The figure for `CC[C@H](C)[C@@H]1NC(=O)[C@H](CO)NC(=O)[C@H](Cc2ccc(O)cc2)NC(=O)[C@H](Cc2ccc(O)cc2)NC(=O)[C@H]([C@@H](C)CC)NC(=O)[C@H](Cc2c[nH]cn2)NC(=O)[C@H](CC(N)=O)NC(=O)[C@H](Cc2ccccc2)NC(=O)[C@H](Cc2ccccc2)NC(=O)[C@H](CCC(N)=O)NC(=O)[C@H](CC(=O)O)NC(=O)[C@H]([C@@H](C)CC)NC(=O)[C@H](Cc2ccc(O)cc2)NC(=O)CSC[C@@H](C(=O)NCC(N)=O)NC1=O` ({CH2CO}-YIDQFFNHIYYSICG-NH2; thioether N-14) is 14700 nM; for `CC[C@H](C)[C@@H]1NC(=O)[C@H](CCCNC(=N)N)NC(=O)[C@H](Cc2ccc(O)cc2)NC(=O)[C@H](Cc2ccccc2)NC(=O)[C@H](Cc2c[nH]cn2)NC(=O)[C@H](Cc2c[nH]cn2)NC(=O)[C@H](Cc2ccc(O)cc2)NC(=O)CSC[C@@H](C(=O)NCC(N)=O)NC(=O)CNC(=O)[C@H](CC(C)C)NC(=O)[C@H](CCC(=O)O)NC(=O)CNC(=O)[C@H](Cc2ccc(O)cc2)NC(=O)[C@H](CC(C)C)NC1=O` ({CH2CO}-YHHFYRILYGELGCG-NH2; thioether N-14) it is 171 nM; for `CC[C@H](C)[C@@H]1NC(=O)[C@H](CCCNC(=N)N)NC(=O)[C@H](Cc2c[nH]cn2)NC(=O)[C@H](Cc2ccc(O)cc2)NC(=O)[C@H](Cc2c[nH]cn2)NC(=O)[C@H](Cc2c[nH]cn2)NC(=O)[C@H](Cc2ccc(O)cc2)NC(=O)CSC[C@@H](C(=O)NCC(N)=O)NC(=O)CNC(=O)[C@H](CC(C)C)NC(=O)[C@H](CCC(=O)O)NC(=O)CNC(=O)[C@H](Cc2ccc(O)cc2)NC(=O)[C@H](CC(C)C)NC1=O` ({CH2CO}-YHHYHRILYGELGCG-NH2; thioether N-14) it is above 30000 nM. The compound `CC[C@H](C)[C@@H]1NC(=O)[C@H](CCCNC(=N)N)NC(=O)[C@H](Cc2ccc(O)cc2)NC(=O)[C@H](Cc2ccc(O)cc2)NC(=O)[C@H](Cc2c[nH]cn2)NC(=O)[C@H](CCCNC(=N)N)NC(=O)[C@H](Cc2ccc(O)cc2)NC(=O)CSC[C@@H](C(=O)NCC(N)=O)NC(=O)CNC(=O)[C@H](CC(C)C)NC(=O)[C@H](CCC(=O)O)NC(=O)CNC(=O)[C@H](Cc2ccc(O)cc2)NC(=O)[C@H](CC(C)C)NC1=O` ({CH2CO}-YRHYYRILYGELGCG-NH2; thioether N-14) gave a 50% inhibitory concentration (IC50) above 30000 nM.

Take `CC[C@H](C)[C@@H]1NC(=O)[C@H](Cc2c[nH]cn2)NC(=O)[C@H](Cc2ccc(O)cc2)NC(=O)CSC[C@@H](C(=O)NCC(N)=O)NC(=O)CNC(=O)[C@H](CC(C)C)NC(=O)[C@H](Cc2c[nH]cn2)NC(=O)CNC(=O)[C@H](Cc2ccc(O)cc2)NC(=O)[C@H](CC(C)C)NC(=O)[C@H](CO)NC(=O)[C@H](Cc2ccccc2)NC(=O)[C@H](Cc2ccc(O)cc2)NC(=O)[C@H](Cc2ccc(O)cc2)NC1=O` ({CH2CO}-YHIYYFSLYGHLGCG-NH2; thioether N-14): the midpoint of inhibition, the IC50, lay at 6.2 nM. With `CC(C)C[C@@H]1NC(=O)[C@H](CO)NC(=O)[C@H](Cc2ccc(O)cc2)NC(=O)[C@H](Cc2ccc(O)cc2)NC(=O)[C@H](Cc2ccc(O)cc2)NC(=O)[C@H](C(C)C)NC(=O)[C@H](Cc2c[nH]cn2)NC(=O)[C@H](Cc2ccc(O)cc2)NC(=O)CSC[C@@H](C(=O)NCC(N)=O)NC(=O)CNC(=O)[C@H](CC(C)C)NC(=O)[C@@H]2CCCN2C(=O)CNC(=O)[C@H](Cc2ccc(O)cc2)NC1=O` ({CH2CO}-YHVYYYSLYGPLGCG-NH2; thioether N-14) the figure was 9 nM; with `CC[C@H](C)[C@@H]1NC(=O)[C@H](Cc2c[nH]cn2)NC(=O)[C@H](Cc2ccc(O)cc2)NC(=O)CSC[C@@H](C(=O)NCC(N)=O)NC(=O)CNC(=O)[C@H](CC(C)C)NC(=O)[C@H](CO)NC(=O)CNC(=O)[C@H](Cc2ccc(O)cc2)NC(=O)[C@H](CC(C)C)NC(=O)[C@H](CO)NC(=O)[C@H](CO)NC(=O)[C@H](Cc2ccc(O)cc2)NC(=O)[C@H](Cc2ccc(O)cc2)NC1=O` ({CH2CO}-YHIYYSSLYGSLGCG-NH2; thioether N-14), 7 nM; with `CC[C@H](C)[C@@H]1NC(=O)[C@H](CCCNC(=N)N)NC(=O)[C@H](Cc2ccccc2)NC(=O)[C@H](Cc2ccc(O)cc2)NC(=O)[C@H](Cc2c[nH]cn2)NC(=O)[C@H](Cc2c[nH]cn2)NC(=O)[C@H](Cc2ccc(O)cc2)NC(=O)CSC[C@@H](C(=O)NCC(N)=O)NC(=O)CNC(=O)[C@H](CC(C)C)NC(=O)[C@H](CCC(=O)O)NC(=O)CNC(=O)[C@H](Cc2ccc(O)cc2)NC(=O)[C@H](CC(C)C)NC1=O` ({CH2CO}-YHHYFRILYGELGCG-NH2; thioether N-14), 3970 nM.
